In patent US10226471B2, “Modified-release dosage forms of 5-HT2C agonists useful for weight management” (Arena Pharmaceuticals, Inc., priority 2010, dated 2019):
Where two headings read alike, the source gives them in different places.

Columns and labels:
[1] = Biopharmaceutics Classification System classification; type: physicochemical
Excerpt: An immediate-release, film-coated 10-mg tablet was developed for the phase 3 clinical trials and commercialization of Compound 1 (Example 5).

[2] = Solubility of salts in water (UPLC or gravimetry); type: physicochemical
Experimental: Acquity ultra performance liquid chromatography (UPLC) from Waters was used for solubility and stoichiometry determination. […] UPLC was equipped with Acquity PDA detector. UPLC mobile phase solvent A was 0.1% TFA in DI-water, solvent B was 0.1% TFA in acetonitrile.
Column temperature was 40±5° C. Acquity UPLC® HSS T3 1.8 μm, 2.1×50 mm column was used.
A known amount of sample was dissolved in water and analyzed by UPLC.

[3] = Dynamic moisture-sorption (DMS); type: physicochemical; conditions: for hygroscopicity by DMS: isotherm 25° C.; for DMS weight gain at 90% RH: out to and including the 90% RH hold at 25° C.
Experimental: Dynamic moisture-sorption (DMS) studies were conducted using a dynamic moisture-sorption analyzer, VTI Corporation, SGA-100, equipment #0228. Samples were prepared for DMS analysis by placing 5 mg to 20 mg of a sample in a tared sample holder. The sample was placed on the hang-down wire of the VTI balance. A drying step was run, typically at 40° C. and 0.5-1% RH for 1-2 h. The isotherm temperature is 25° C. Defined % RH holds typically ranged from 10% RH to 90% RH or 95% RH, with intervals of 10 to 20% RH. A % weight change smaller than 0.010% over a specified number of minutes (typically 10-20), or up to 2 h, whichever occurs first, is required before continuing to the next % RH hold. The water content of the sample equilibrated as described above was determined at each % RH hold.

[4] = Deliquescence relative humidity (DRH) by water activity meter; type: physicochemical; conditions: saturated aqueous solution with excess solid, 25° C.
[5] = 26-day body weight study, oral gavage versus osmotic minipump; type: in vivo, male Sprague Dawley rats
Experimental: 30 male Sprague Dawley rats weighing 275-320 g were singly housed and maintained on a 12 h:12 h light-dark cycle (lights on at 23:00 h). Food and water were available ad libitum at all times except during the first day after pump implantation (see below). All rats were habituated to injection and handling procedures for one week prior to study onset.
For the purposes of dose calculation each rat was assumed to weigh 320 g at the start of the study. Rats receiving Compound 1 hydrochloride salt PO were given a fixed daily dose of 7.68 mg, whereas rats in the pump group received a total fixed daily dose of 4.84 mg (for calculations see Example 2.1).
Osmotic minipumps (Alzet® model 2ML4, Durect Corp, CA) were filled with either vehicle (0.9% saline, n=20), or Compound 1 hydrochloride salt solutions and submerged overnight in a 0.9% saline solution to reach equilibrium. […] All subjects were then implanted with the minipumps. Briefly, under isoflourane anaesthesia the nape of the neck was shaved, a mid-scapular incision was made and a subcutaneous pocket was created for the minipump. A minipump was then inserted into the pocket and the incision was closed using surgical staples. Rats were then returned to homecage for recovery. Rats in VEH and PO groups received pumps primed with vehicle; whereas rats in the PUMP group received Compound 1 hydrochloride salt-filled pumps. Because steady state levels of Compound 1 in vivo in the PUMP group were not predicted to be reached until at least 24 h post-implantation, food was removed from all rats for approximately one day after surgery. At 10:30 h the next day (Day 1) and for all subsequent days, food and body weight was measured for all subjects, and all subjects were administered either saline (for VEH and PUMP groups), or Compound 1 hydrochloride salt (PO group) via oral gavage. Food intake and body weight were measured for a total of 26 days.

[6] = chronic twice-daily oral administration, high fat diet, 4-week study; cited from earlier work
[7] = Appearance on exposure to light; type: physicochemical; conditions: solid removed from the slurry
[8] = water, thermodynamic from solid, by UPLC, read-out: solubility in water

C[C@H]1CNCCc2ccc(Cl)cc21.C[C@H]1CNCCc2ccc(Cl)cc21.Cl.Cl.O
Biopharmaceutics Classification System solubility class [1]: highly soluble | solubility ([2]; pH range of 1 to 7): exceeds 400 mg/mL

C[C@H]1CNCCc2ccc(Cl)cc21.O=C(O)/C=C/C(=O)O [Compound 1 fumarate salt]
hygroscopicity by DMS ([3]; listed as Compound 1 Fumarate Salt, Form I, fumarate salt): FIG. 13: non-hygroscopic up to 90% RH | hygroscopicity by DMS ([3]; listed as Compound 1 fumarate salt, Form I, fumarate salt): non-hygroscopic | DRH (deliquescence relative humidity) [4]: 99 % RH | solubility [2, 8]: 4800 µg/mL

C[C@H]1CNCCc2ccc(Cl)cc21.C[C@H]1CNCCc2ccc(Cl)cc21.O=S(=O)(O)c1cccc2c(S(=O)(=O)O)cccc12 [Compound 1 heminapadisilate salt]
solubility in water ([2]; by UPLC): 2370 µg/mL

C[C@H]1CNCCc2ccc(Cl)cc21.C[C@H]1CNCCc2ccc(Cl)cc21.O.O=C(O)c1cc2ccccc2c(Cc2c(O)c(C(=O)O)cc3ccccc23)c1O [Compound 1 hemipamoate salt hydrate]
hygroscopicity by DMS [3]: slightly hygroscopic | DMS weight gain at 90% RH ([3]; listed as Compound 1 Hemipamoate Salt Hydrate, Form I, hydrate): FIG. 41: ~1.472% weight gain at about 90% RH | DMS weight gain at 90% RH ([3]; listed as Compound 1 hemipamoate salt hydrate, Form I, hydrate): about 1.472% | solubility in water ([2]; by UPLC): 24 µg/mL

C[C@H]1CNCCc2ccc(Cl)cc21.Cl [Compound 1 hydrochloride salt]
body weight gain, PUMP group compared to PO group ([5]; 26 days, p=0.0501, slopes differ p<0.01): lower weight gain in the PUMP group than in the PO group | body weight gain over 26 days compared to saline ([5]; oral gavage once daily, 24 mg/kg/day (fixed 7.68 mg)): significantly decreased | body weight gain over 26 days compared to saline ([5]; osmotic minipump, 15.1 mg/kg/day (fixed 4.84 mg)): significantly decreased | food intake and body weight gain [6]: dose-dependent reductions in food intake and body weight gain

C[C@H]1CNCCc2ccc(Cl)cc21.I [Compound 1 hydroiodide salt]
hygroscopicity by DMS ([3]; Form I, hydroiodide salt): FIG. 7: non-hygroscopic | hygroscopicity by DMS ([3]; hydroiodide salt): non-hygroscopic | DRH (deliquescence relative humidity) [4]: 99 % RH | solubility ([2]; water, thermodynamic from solid, 27° C., by gravimetry (confirmed by UPLC), read-out: solubility in water): 5500 µg/mL | colour change on exposure to light [7]: did yellow noticeably within hours when exposed to light

C[C@H]1CNCCc2ccc(Cl)cc21.O=C(O)/C=C\C(=O)O [Compound 1 maleate salt]
hygroscopicity by DMS [3]: not hygroscopic | DMS weight gain at 90% RH ([3]; maleate salt): 0.15% | DRH (deliquescence relative humidity) [4]: 99 % RH | solubility [2, 8]: 33000 µg/mL
